Columns and labels:
[1] = design: method as in doi:10.1016/S0065-7743(08)60834-9; settings: cited from earlier work
[2] = target: T1, α-fucosidase (bovine kidney origin) (Bos taurus, UniProt Q2KIM0); test: α-fucosidase inhibition assay, 96-well; assay type: biochemical; settings: two independent assays, performed in duplicate; read-out: IC50s α-fucosidase (bovine kidney)
T1 construct: purchased Sigma Aldrich; host or cells: bovine kidney
T1 sequence (Q2KIM0 23-468): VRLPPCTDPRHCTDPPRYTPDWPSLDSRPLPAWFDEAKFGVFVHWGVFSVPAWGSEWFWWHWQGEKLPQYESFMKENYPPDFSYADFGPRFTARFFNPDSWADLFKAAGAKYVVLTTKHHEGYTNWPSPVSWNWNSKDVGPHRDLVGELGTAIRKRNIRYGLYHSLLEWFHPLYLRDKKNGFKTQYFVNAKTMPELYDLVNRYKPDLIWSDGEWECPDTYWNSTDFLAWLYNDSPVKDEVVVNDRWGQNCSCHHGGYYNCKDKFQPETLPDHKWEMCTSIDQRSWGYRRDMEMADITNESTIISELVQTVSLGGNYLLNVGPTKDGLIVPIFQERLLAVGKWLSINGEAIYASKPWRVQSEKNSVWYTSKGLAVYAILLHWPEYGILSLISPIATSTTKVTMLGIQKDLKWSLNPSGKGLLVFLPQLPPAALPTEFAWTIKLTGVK
Protocol: (§1) To assess the inhibitory effect and also the extent of selectivity our library was against α-glucosidase (yeast origin), α-fucosidase (bovine kidney origin) and α-mannosidase (jack bean origin) (in 96-well plates employing 4-nitrophenyl-α-D-glucopyranoside (PNPG) as substrate) (Table 1). The test compounds were dissolved and diluted in dimethyl sulfoxide (DMSO). They were placed in the plate along with the substrate and 10 mM of potassium […] buffer. They were then reacted with appropriate enzymes. After incubating the plates for ten minutes, the absorbance of the wells were measured at […]. The increase in […] (ΔA) was compared against the control i.e. buffer.
(§2) The inhibitory effect of the synthesized compounds on α-glucosidase (yeast origin), α-fucosidase (bovine kidney origin) and α-mannosidase (jack bean origin) inhibitory activity was determined in 96-well plates employing the substrate PNPG and 4-nitrophenyl α-D-glucopyranoside according to the procedure previously reported by Ferreres et al.[42]. […] The absorbance was measured spectrophotometrically at 430 nm (Spectra Max M5e micro plate reader). The increase in absorbance (ΔA) was compared with that of the control (buffer instead of test compound) to compute the inhibitory concentrations (IC50) which was determined from two independent assays, performed in duplicate. […]

[3] = target: T2, α-glucosidase (yeast origin) (Saccharomyces cerevisiae, UniProt P53341); test: α-glucosidase (yeast) inhibition assay, PNPG substrate, 96-well; assay type: biochemical; settings: two independent assays, performed in duplicate, 37 °C, 10 min, read-out: IC50s α-glucosidase (yeast)
T2 construct: purchased Sigma Aldrich
T2 sequence (P53341 whole entry): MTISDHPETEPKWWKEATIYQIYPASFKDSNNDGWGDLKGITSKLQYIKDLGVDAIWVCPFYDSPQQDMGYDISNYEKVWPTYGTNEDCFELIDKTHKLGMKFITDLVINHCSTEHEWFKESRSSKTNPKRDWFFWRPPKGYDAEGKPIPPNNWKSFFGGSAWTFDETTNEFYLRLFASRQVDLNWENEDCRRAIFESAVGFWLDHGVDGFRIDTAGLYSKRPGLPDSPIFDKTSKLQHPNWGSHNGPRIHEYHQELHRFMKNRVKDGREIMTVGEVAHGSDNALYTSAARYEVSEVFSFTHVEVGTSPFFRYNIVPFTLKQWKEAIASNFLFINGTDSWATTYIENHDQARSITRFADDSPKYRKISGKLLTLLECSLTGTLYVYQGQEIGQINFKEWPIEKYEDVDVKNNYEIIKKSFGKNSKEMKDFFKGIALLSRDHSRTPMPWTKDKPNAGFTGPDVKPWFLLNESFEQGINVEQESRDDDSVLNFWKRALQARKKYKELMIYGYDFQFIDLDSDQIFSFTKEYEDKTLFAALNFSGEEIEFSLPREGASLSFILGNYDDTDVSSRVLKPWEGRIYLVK
Protocol: The test compounds were dissolved and diluted in dimethyl sulfoxide (DMSO). They were placed in the plate along with the substrate and 10 mM of potassium sulphate buffer. They were then reacted with appropriate enzymes. After incubating the plates for ten minutes, the absorbance of the wells were measured at 430 nM. The increase in abundance (ΔA) was compared against the control i.e. buffer.
The inhibitory effect of the synthesized compounds on α-glucosidase (yeast origin), α-fucosidase (bovine kidney origin) and α-mannosidase (jack bean origin) inhibitory activity was determined in 96-well plates employing the substrate PNPG and 4-nitrophenyl α-D-glucopyranoside according to the procedure previously reported by Ferreres et al.[42]. Prior to use, all test compounds were solubilised in solvent, dimethylsulfoxide (DMSO), and then further diluted in DMSO to acquire the desired final maximum test concentration. […] The absorbance was measured spectrophotometrically at 430 nm (Spectra Max M5e micro plate reader). The increase in absorbance (ΔA) was compared with that of the control (buffer instead of test compound) to compute the inhibitory concentrations (IC50) which was determined from two independent assays, performed in duplicate.

[4] = target: T3, α-mannosidase (jack bean origin) (Canavalia ensiformis, UniProt C0HJB3); test: α-mannosidase inhibition assay, 96-well; assay type: biochemical; settings: two independent assays, performed in duplicate; read-out: IC50s α-mannosidase (jack bean)
T3 construct: purchased Sigma Aldrich; host or cells: jack bean
T3 sequence (C0HJB3 1-981): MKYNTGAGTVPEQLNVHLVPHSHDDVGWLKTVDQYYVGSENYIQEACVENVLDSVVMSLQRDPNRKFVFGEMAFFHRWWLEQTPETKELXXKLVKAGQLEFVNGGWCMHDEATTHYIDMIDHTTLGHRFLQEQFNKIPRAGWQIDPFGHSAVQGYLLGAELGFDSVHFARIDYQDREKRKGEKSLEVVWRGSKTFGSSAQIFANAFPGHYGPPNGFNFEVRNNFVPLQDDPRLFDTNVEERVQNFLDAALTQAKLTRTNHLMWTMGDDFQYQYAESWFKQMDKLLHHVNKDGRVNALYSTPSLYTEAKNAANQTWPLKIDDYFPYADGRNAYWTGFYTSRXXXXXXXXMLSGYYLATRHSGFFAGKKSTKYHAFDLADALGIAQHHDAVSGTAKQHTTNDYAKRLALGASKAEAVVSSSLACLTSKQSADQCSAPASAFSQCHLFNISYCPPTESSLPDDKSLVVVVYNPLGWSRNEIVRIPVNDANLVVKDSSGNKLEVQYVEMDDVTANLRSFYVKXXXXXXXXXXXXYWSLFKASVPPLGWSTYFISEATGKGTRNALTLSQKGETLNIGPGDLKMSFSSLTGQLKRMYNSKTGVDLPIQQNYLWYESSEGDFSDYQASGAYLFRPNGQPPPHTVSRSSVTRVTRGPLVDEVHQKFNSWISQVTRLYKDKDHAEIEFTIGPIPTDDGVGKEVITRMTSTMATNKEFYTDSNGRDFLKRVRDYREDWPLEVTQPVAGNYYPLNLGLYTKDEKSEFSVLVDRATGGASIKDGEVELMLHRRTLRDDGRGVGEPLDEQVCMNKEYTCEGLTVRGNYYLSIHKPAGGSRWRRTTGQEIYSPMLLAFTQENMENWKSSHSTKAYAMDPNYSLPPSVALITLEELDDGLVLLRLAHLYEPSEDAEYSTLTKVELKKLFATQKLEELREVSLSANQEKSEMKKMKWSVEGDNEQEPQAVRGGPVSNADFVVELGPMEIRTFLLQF
Protocol: as §1, §2

NA-STZ-diabetic mice = test system: NA-STZ-diabetic mice; design: method as in PMID 20879744; settings: 10, 31.2 and 56.2 mg/Kg; cited from earlier work

CS(=O)(=O)c1ccc(-n2nc(C(F)(F)F)cc2-c2ccc(F)cc2)cc1 [SC-58125]
half-life [1]: ~ 200 h

O=C(Cc1ccccc1Br)c1ccccc1C(=O)NCCc1ccccc1 [3o]
IC50 [2]: > 50 µM | IC50 [3]: 6.93 µM | IC50 [4]: > 50 µM

CCCC=C1OC(=O)c2ccccc21 [compound 2]
blood glucose level (NA-STZ-diabetic mice): lowered blood glucose level

Reference: PMC5643545, “A novel library of -arylketones as potential inhibitors of α-glucosidase: Their design, synthesis, in vitro and in vivo studies” (Scientific Reports, 2017)
